Experimental data taken from patent US20150223463A1, “SPIROCYCLIC ISOXAZOLINE DERIVATIVES FOR TREATMENT OF SEA LICE” (Zoetis LLC, priority 2012, published 2015).

Tested on: Lepeophtheirus salmonis (sea lice)
Experiment: Sea lice bioassay, 24 hours exposure to test compound
Type: in vivo
Conditions: predominantly pre-adult and adult stage, generally chemical resistant strain

Which “Adult Females (EC50)” value (adult female sea lice) does the source give for `CS(=O)(=O)CC(=O)N1CC2(C1)OCc1cc(C3=NOC(c4cc(Cl)c(F)c(Cl)c4)(C(F)(F)F)C3)ccc12` (centres unmarked) [Example 1] here?
Its value is 0.13 ppb.

What about the “Adult Males (EC50)” value (adult male sea lice) of the same compound?
Its value is 0.08 ppb.
